Measurements taken from US20170056380A1, “Systems, Methods, Techniques, and Compounds in Research and Treatment of Portal Hypertension and other Conditions” (priority 2014, published 2017).

Assays:
protein kinase G (PKG) = assay: Phospho-VASP immunoblotting for PKG activity in stellate cells alone or cocultured with sinusoidal endothelial cells; type: cell-based, rat; settings: coculture, L-NAME 1 μM 4 h, then cicletanine 100 nM
Description: For coculture experiments, freshly isolated stellate cells and freshly isolated sinusoidal endothelial cells were isolated separately and mixed together on collagen-coated plates and cultured for 5 days. Sinusoidal endothelial cells were plated at a density of 200,000 cells/cm2, and stellate cells were at a density of 65,000 cells/cm2.
(§1) Immunoblotting, Immunoblotting was performed by using specified primary antibodies, including anti-eNOS antibody (1:1,000; BD Transduction Laboratories, San Jose, Calif.), anti-phospho-eNOS-Ser^1177 (1:1,000; BD Transduction Laboratories or Cell Signaling Technology), anti-phospho-Akt, anti-Akt (Cell Signaling Technology, Beverly, Mass.), and horseradish peroxidase-conjugated secondary antibody. Specific signals were visualized using enhanced chemiluminescence as per the manufacturer's instructions and were scanned and quantitated with standard software.

eNOS [1] = target: T1, eNOS (Rattus norvegicus, UniProt Q62600); assay: NOS activity assay (conversion of L-[3H]arginine to L-[3H]citrulline) in sinusoidal endothelial cell lysates; type: cell-based; settings: cicletanine 100 nM plus inhibitor
T1 construct: endogenous in cells; host or cells: primary liver sinusoidal endothelial cells from male Sprague-Dawley rats (normal or bile-duct-ligated)
T1 sequence (Q62600 1-1202): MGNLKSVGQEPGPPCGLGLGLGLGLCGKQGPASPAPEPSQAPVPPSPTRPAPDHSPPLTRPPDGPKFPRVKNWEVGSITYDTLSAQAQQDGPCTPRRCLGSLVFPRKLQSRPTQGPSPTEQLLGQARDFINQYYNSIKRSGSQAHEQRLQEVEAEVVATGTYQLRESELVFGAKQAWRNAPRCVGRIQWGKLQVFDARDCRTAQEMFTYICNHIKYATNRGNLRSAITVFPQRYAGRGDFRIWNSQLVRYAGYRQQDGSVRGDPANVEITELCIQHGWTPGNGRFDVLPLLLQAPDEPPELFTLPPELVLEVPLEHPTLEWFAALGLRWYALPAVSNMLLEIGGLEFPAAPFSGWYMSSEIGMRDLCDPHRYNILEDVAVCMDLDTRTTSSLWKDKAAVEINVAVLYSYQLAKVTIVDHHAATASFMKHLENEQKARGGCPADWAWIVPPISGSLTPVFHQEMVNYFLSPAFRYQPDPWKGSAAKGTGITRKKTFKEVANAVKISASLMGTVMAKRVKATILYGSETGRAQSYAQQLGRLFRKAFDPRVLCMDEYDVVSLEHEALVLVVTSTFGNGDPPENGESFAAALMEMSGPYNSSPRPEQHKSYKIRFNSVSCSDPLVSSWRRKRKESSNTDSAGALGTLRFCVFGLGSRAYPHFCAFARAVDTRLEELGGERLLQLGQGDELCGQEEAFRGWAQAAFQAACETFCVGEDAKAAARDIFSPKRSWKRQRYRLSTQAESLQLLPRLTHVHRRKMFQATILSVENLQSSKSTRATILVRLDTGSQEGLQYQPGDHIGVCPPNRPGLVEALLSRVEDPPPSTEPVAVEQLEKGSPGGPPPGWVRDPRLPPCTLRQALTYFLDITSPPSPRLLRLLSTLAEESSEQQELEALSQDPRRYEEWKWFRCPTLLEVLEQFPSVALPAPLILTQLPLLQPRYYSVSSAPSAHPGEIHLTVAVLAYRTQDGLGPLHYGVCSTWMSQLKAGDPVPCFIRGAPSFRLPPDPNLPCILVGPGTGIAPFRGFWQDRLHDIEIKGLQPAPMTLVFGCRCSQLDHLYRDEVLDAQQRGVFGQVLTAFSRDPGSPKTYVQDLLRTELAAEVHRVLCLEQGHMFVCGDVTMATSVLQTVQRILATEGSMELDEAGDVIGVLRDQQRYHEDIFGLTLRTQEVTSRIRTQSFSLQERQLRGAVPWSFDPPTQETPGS
Description: (§2) Cell isolation and culture. Sinusoidal endothelial cells were isolated from male Sprague-Dawley rats (450-500 g) (Harlan, Indianapolis, Ind.). In brief, after in situ perfusion of the liver with 20 mg/100 mg pronase (Roche Molecular Biochemicals, Indianapolis, Ind.), followed by collagenase (Worthington Biochemical, Lakewood, N.J.), dispersed cell suspensions were removed from a layered discontinuous density gradient of 8.2 and 15.6% Accudenz (Accurate Chemical and Scientific, Westbury, N.Y.), further purified by centrifugal elutriation (18 ml/min flow), and were grown in medium containing 20% serum (10% horse/calf). The purity of endothelial cells was documented by their uptake of fluorescently labeled di-l-acetoacetylated low-density lipoprotein as described (21). Only primary sinusoidal endothelial isolates of >95% purity were used for study. Experiments were performed with cells frorrr a minimum three different isolations (for all experiments).
(§3) Animal model of liver injury and portal hypedension. Liver injury and portal hypertension were induced by performing bile duct ligation in 450- to 500-gram male retired breeder Sprague-Dawley rats as described in Liu and 20- to 25-gram male BALB/c mice. Briefly, bile duct ligation was performed by surgical isolation and ligation of the common bile duct. This model creates a portal-based fibrogenic response and portal hypertension 10-14 days after surgery (Liu). For study of injured sinusoidal endothelial cells, we used the rat model of bile duct ligation (10-14 days postsurgery); for in vivo study (primarily to conserve the use of active compound), we used the mouse model of bile duct ligation (examining portal pressure 4 wk postsurgery). In sham-operated rats or mice, laparotomy without isolation and section of the bile duct was performed. Studies were approved by the local Institutional Animal Care and Use Committees. Portal pressure measurement. Portal hypertension was induced in male BALB/c mice by bile duct ligation as above. Cicletanine (5 mg·kg^−1·day^−1) or vehicle was given by gavage as a single daily dose for 10 days before portal pressure measurement as described in Liue. In brief, mice were anesthetized, and an intravenous catheter (Becton Dickinson Vascular Access, Sandy, Utah) was introduced in the portal vein and secured with a silk tie. A calibrated low-pressure transducer (Digi-Med, Louisville, Ky.) was connected to the portal vein catheter, and portal pressure was recorded continuously using the Digi-Med Integrator 200 System (Digi-bled).
NOS activity assay. NOS activity from sinusoidal endothelial cell lysates was assessed by measuring the conversion of L-[3H]arginine to L-[3H]citrulline as described (6) per the manufacturer's instructions (Cayman Chemical). In brief, triplicate samples of cell lysates were incubated with a reaction buffer containing 3 pmol of L-[3H]arginine (45 Ci/mmol), 0-50 μM arginine, 1 mM NADPH, 100 nM calmodulin (CaM), 2 mM CaCl2, and 30 μM BH4 in a volume of 50-100 μl at room temperature for 30 min and at 37° C. for an additional 30 min in the presence and absence of 1 mM NG-nitro-L-arginine methyl ester (L-NAME). […] Radiolabeled counts per minute of generated L-citrulline were measured and used to determine L-NAME-inhibitable NOS activity (thus, each experiment included total counts and background counts). […] The reductase activities of sinusoidal endothelial cells with or without cicletanine exposure were determined using the NADPH-dependent cytochrome c assay. […]

[2] = system: NO production in sinusoidal endothelial cells; assay: NO measurement (nitrite in conditioned medium of sinusoidal endothelial cells); type: cell-based, rat; settings: for effect on cicletanine-induced NO production: PD-98059 10 μM 30 min, then cicletanine 100 nM 2 h
Description: as §2, §3
NO measurement. To assess NO production, we analyzed the release of nitrite, the stable breakdown product of NO, using a nitrite/nitrate assay kit (Cayman Chemicals, Ann Arbor, Mich.), following the manufacturer's instructions. Briefly, conditioned medium from sinusoidal endothelial cells with or without cicletanine treatment were loaded on a 96-well plate and mixed with both enzyme cofactor and nitrate reductase. After incubation at room temperature for 3 h, 100 μl Griess reagent mix were added to each well. After 10 more minutes at room temperature, the absorbance of each well was determined on a microplate reader at 540 nm, and the nitrite concentrations were deduced from a standard curve.

eNOS [3] = assay: eNOS phosphorylation (Ser1177) and total eNOS by immunoblotting in sinusoidal endothelial cells; type: cell-based, rat; settings: PD-98059 10 μM 30 min, then cicletanine 100 nM 2 h
Description: as §2, §1, §3

Question: Which results are given for `COC(=O)[C@@H](N)CCCNC(=N)N[N+](=O)[O-]` [L-NAME, NG-nitro-L-arginine methyl ester]?
Answer: effect on cicletanine-stimulated VASP phosphorylation (protein kinase G (PKG)): inhibited; effect on cicletanine-induced eNOS activity (eNOS [1]): inhibitable; effect on nitrite production ([2]; L-NAME 1 μM preexposure 4 h, then cicletanine 2 h): inhibited

Question: `COc1cccc(-c2cc(=O)c3ccccc3o2)c1N` [PD-98059] was tested. Which “effect on cicletanine-induced eNOS phosphorylation” value (eNOS [3]) did it give?
Answer: blocked

Question: What about the “effect on cicletanine-induced eNOS phosphorylation” value (eNOS [3]; listed as PD-098059) of the same molecule?
Answer: abolished

Question: And the “effect on cicletanine-induced NO production” value [2]?
Answer: blocked

Question: And the “effect on cicletanine-induced NO production” value ([2]; listed as PD-098059)?
Answer: abolished

Question: Which “production of nitrite, (+) isomer compared with (−) isomer” value ([2]; comparison of isomers) does the source give for `Cc1ncc2c(c1O)COC2c1ccc(Cl)cc1` (centres unmarked) [S-cicletanine] here?
Answer: more effective than the (−) isomer of cicletanine
